Assay results reported in article PMC6767204, “Synthesis and Biological Evaluation of Disubstituted Pyrimidines as Selective 5-HT2C Agonists” (Molecules, 2019).
pKi: −log10 of the molar value. Structures can show the parent of a compound that is named as a salt.

target: T1, 5-HT2C receptor (Homo sapiens, UniProt P28335); experiment: 5-HT2C receptor cell-based functional assay (agonist mode, fluorescence-based); conditions: 1 μM; Table 1 footnote a
T1 sequence (P28335 33-458): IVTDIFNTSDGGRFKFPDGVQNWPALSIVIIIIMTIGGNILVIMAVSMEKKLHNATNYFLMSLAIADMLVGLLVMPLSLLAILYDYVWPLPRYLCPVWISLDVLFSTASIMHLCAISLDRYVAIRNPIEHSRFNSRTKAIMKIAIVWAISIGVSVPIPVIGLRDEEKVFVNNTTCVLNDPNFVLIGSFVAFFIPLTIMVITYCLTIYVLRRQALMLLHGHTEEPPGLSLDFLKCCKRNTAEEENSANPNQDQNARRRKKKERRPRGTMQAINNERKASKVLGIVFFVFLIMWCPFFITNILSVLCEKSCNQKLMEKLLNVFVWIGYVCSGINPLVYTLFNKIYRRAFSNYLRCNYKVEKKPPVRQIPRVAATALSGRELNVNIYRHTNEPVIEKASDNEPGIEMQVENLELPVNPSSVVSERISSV
Description: The synthesized compounds were tested in agonist mode with the 5-HT2C receptor assay using recombinant human HEK-293 cells serviced by either Eurofins Cerep or DGMIF (Daegu-Gyeongbuk Medical Innovation Foundation). All the experiments were duplicated.

Compound	%activation value at 1 μM
C[C@H]1CNCCc2ccc(Cl)cc21 [Lorcaserin (1), Lorcaserin, reference compound]	94^a %

same assay, conditions: HEK293, read-out: %activation (10 μM)

Compound	activation at 10 µM
C[C@@H]1CNCCN1c1ncc(Oc2cccc(F)c2)cn1 [9g]	35%
C[C@@H]1CNCCN1c1ncc(OCc2cccc(F)c2)cn1 [9h, (R)-4-(5-((3-fluorobenzyl)oxy)pyrimidin-2-yl)-3-methylpiperazine-1-ium∙hydrochloride]	48%
C[C@@H]1CNCCN1c1ncc(OCCc2cccc(F)c2)cn1 [9i]	40%
C[C@@H]1CNCCN1c1ncc(Oc2ccc(F)cc2)cn1 [9j]	26%
C[C@@H]1CNCCN1c1ncc(OCc2ccc(F)cc2)cn1 [9k, (R)-4-(5-((4-fluorobenzyl)oxy)pyrimidin-2-yl)-3-methylpiperazin-1-ium∙hydrochloride]	48%
C[C@@H]1CNCCN1c1ncc(OCCc2ccc(F)cc2)cn1 [9l]	32%
Fc1cccc(Oc2cnc(N3CCCNCC3)nc2)c1 [9m]	16%
Fc1cccc(COc2cnc(N3CCCNCC3)nc2)c1 [9n, 4-(5-((3-fluorobenzyl)oxy)pyrimidin-2-yl)-1,4-diazepan-1-ium∙hydrochloride]	-1%
Fc1cccc(CCOc2cnc(N3CCCNCC3)nc2)c1 [9o]	3%
Fc1ccc(Oc2cnc(N3CCCNCC3)nc2)cc1 [9p]	14%
Fc1ccc(COc2cnc(N3CCCNCC3)nc2)cc1 [9q, 4-(5-((4-fluorobenzyl)oxy)pyrimidin-2-yl)-1,4-diazepan-1-ium∙hydrochloride]	16%
Fc1ccc(CCOc2cnc(N3CCCNCC3)nc2)cc1 [9r]	-1%

same assay, conditions: HEK293, read-out: %activation (10 μM), 10 μM; recombinant human HEK-293 cells; Table 1

Compound	activation at 10 µM
Fc1cccc(Oc2cnc(N3CCNCC3)nc2)c1 [9a]	7%
Fc1cccc(COc2cnc(N3CCNCC3)nc2)c1 [9b, 4-(5-((3-fluorobenzyl)oxy)pyrimidin-2-yl)piperazin-1-ium∙hydrochloride]	> 50%
Fc1cccc(CCOc2cnc(N3CCNCC3)nc2)c1 [9c]	15%
Fc1ccc(Oc2cnc(N3CCNCC3)nc2)cc1 [9d]	5%
Fc1ccc(COc2cnc(N3CCNCC3)nc2)cc1 [9e, 4-(5-((4-fluorobenzyl)oxy)pyrimidin-2-yl)piperazin-1-ium∙hydrochloride]	18%
Fc1ccc(CCOc2cnc(N3CCNCC3)nc2)cc1 [9f]	4%

same assay, conditions: Table 2; serotonin as reference compound

Compound	%activation
C[C@@H](Oc1nc(N2CCC3(CCNC3)C2)ncc1F)c1cccc(F)c1 (stereo partly drawn) [10b, 2-(5-fluoro-4-((R)-1-(3-fluorophenyl)ethoxy)pyrimidin-2-yl)-2,7-diazaspiro[4.4]nonane]	78.2%
C[C@@H](Oc1nc(N2C[C@H]3CNC[C@H]3C2)ncc1F)c1cccc(F)c1 [10c, (3aR,6aS)-2-(5-fluoro-4-((R)-1-(3-fluorophenyl)ethoxy)pyrimidin-2-yl)octahydropyrrolo[3,4-c]pyrrole]	29.5%
C[C@@H](Oc1nc(N[C@@H]2CCNC2)ncc1F)c1cccc(F)c1 [10d, 5-fluoro-4-((R)-1-(3-fluorophenyl)ethoxy)-N-((R)-pyrrolidin-3-yl)pyrimidin-2-amine]	16.4%
C[C@@H](Oc1nc(N[C@H]2CCNC2)ncc1F)c1cccc(F)c1 [10e, 5-fluoro-4-((R)-1-(3-fluorophenyl)ethoxy)-N-((S)-pyrrolidin-3-yl)pyrimidin-2-amine]	7.7%
C[C@@H](Oc1nc(N2C[C@H]3CNC[C@H]3C2)ncc1F)c1ccc(F)cc1 [10h, (3aR,6aS)-2-(5-fluoro-4-((R)-1-(4-fluorophenyl)ethoxy)pyrimidin-2-yl)octahydropyrrolo[3,4-c]pyrrole]	10.1%
C[C@@H](Oc1nc(N[C@H]2CCNC2)ncc1F)c1ccc(F)cc1 [10j, 5-Fluoro-4-((R)-1-(4-fluorophenyl)ethoxy)-N-((S)-pyrrolidin-3-yl)pyrimidin-2-amine]	0.1%

target: T1, 5-HT2C receptor; experiment: 5-HT receptor radioligand binding affinity assay, 2C; parameters: expressed in transfected cells; conditions: Table 2
Description: Eleven dilutions (5 x assay concentration) of the test and reference compounds (Table S1) were prepared in standard binding buffer (50 mM tris(hydroxymethyl)-aminomethane–HCl (Tris-HCl), 10 mM MgCl2, 1 mM ethylenediaminetetraacetate (EDTA), pH 7.4) by serial dilution: 0.05 nM, 0.5 nM, 1.5 nM, 5 nM, 15 nM, 50 nM, 150 nM, 500 nM, 1.5 μM, 5 μM, and 50 μM. The radioligand (Table S1) was diluted to five times the assay concentration in standard binding buffer. Aliquots (50 μL) of the radioligand were dispensed into the wells of a 96-well plate containing 100 μL of standard binding buffer. Triplicate aliquots (50 μL) of the test and reference compound dilutions were then added. Finally, crude membrane fractions (50 μL) of cells (HEK293 or CHO) expressing human recombinant receptors were dispensed into each well. A total 250 μL of the reaction mixtures was incubated at room temperature and shielded from light for 1.5 h, then harvested by rapid filtration onto Whatman GF/B glass fiber filters presoaked with 0.3% polyethyleneimine, by using a 96-well Brandel harvester.
Four rapid washes were performed with chilled standard binding buffer (500 μL) to decrease nonspecific binding. Filters were placed in 6 mL scintillation tubes and allowed to dry overnight. The next day, 4 ml of EcoScint scintillation cocktail (National Diagnostics) was added to each tube. The tubes were capped, labeled, and counted by liquid scintillation counting. The filter mats were dried, and the scintillant was melted onto the filters, then the radioactivity retained on the filters was counted in a Microbeta scintillation counter. The IC50 values were obtained by using the Prism 4.0 program (GraphPad Software, San Diego, CA) and converted into Ki values. Each compound was tested in triplicate at least.
3. Radioligands and reference compounds for binding assay
Table S1. A list of 5-HT receptor radioligands and reference compounds for binding assay.
Receptor subtype Radioligand Reference compound
1A [3H]8-OH-DPAT Methysergide
2A [3H]Ketanserin Chlorpromazine
2C [3H]Mesulergine Chlorpromazine

Compound	pKi
C[C@@H](Oc1nc(N2C[C@H]3CNC[C@H]3C2)ncc1F)c1cccc(F)c1 [10c, (3aR,6aS)-2-(5-fluoro-4-((R)-1-(3-fluorophenyl)ethoxy)pyrimidin-2-yl)octahydropyrrolo[3,4-c]pyrrole]	6.53
C[C@@H](Oc1nc(N[C@@H]2CCNC2)ncc1F)c1cccc(F)c1 [10d, 5-fluoro-4-((R)-1-(3-fluorophenyl)ethoxy)-N-((R)-pyrrolidin-3-yl)pyrimidin-2-amine]	6.92
C[C@@H](Oc1nc(N[C@H]2CCNC2)ncc1F)c1cccc(F)c1 [10e, 5-fluoro-4-((R)-1-(3-fluorophenyl)ethoxy)-N-((S)-pyrrolidin-3-yl)pyrimidin-2-amine]	5.90
C[C@@H](Oc1nc(N2CCC3(CCNC3)C2)ncc1F)c1ccc(F)cc1 (stereo partly drawn) [10g, 2-(5-fluoro-4-((R)-1-(4-fluorophenyl)ethoxy)pyrimidin-2-yl)-2,7-diazaspiro[4.4]nonane]	6.63
C[C@@H](Oc1nc(N2C[C@H]3CNC[C@H]3C2)ncc1F)c1ccc(F)cc1 [10h, (3aR,6aS)-2-(5-fluoro-4-((R)-1-(4-fluorophenyl)ethoxy)pyrimidin-2-yl)octahydropyrrolo[3,4-c]pyrrole]	6.33
C[C@@H](Oc1nc(N[C@@H]2CCNC2)ncc1F)c1ccc(F)cc1 [10i, 5-fluoro-4-((R)-1-(4-fluorophenyl)ethoxy)-N-((R)-pyrrolidin-3-yl)pyrimidin-2-amine]	6.92
